The text below walks through data of US8304391B2 (Affymax, Inc., priority 2003, dated 2012).

Bridges are numbered along the chain shown (N, C = ends). Roman numbers before positions name the chains, in order. Where no end group is shown, it is not given here. [ ]: non-standard residue; d: D form. The star is where a group is joined. ξ: configuration not given here. 1Nal = N[C@@H](Cc1cccc2ccccc12)C(=O)O; NH(CH2CH2O)2CH2CH2NH2 = NCCOCCOCCN*; hSer = N[C@@H](CCO)C(=O)O; ξK = NCCCCC(N)C(=O)O; Ahx = NCCCCCC(=O)O; Sar = CNCC(=O)O

Test [1] deals with chimeric receptor comprising the extra-cellular portion of the human EPO receptor to the intra-cellular portion of the human GCSF receptor. The test is described as follows: Reporter assay (Baf3/EpoR/GCSFR fos/lux luciferase). It is filed as cell-based. The note with it: peptide monomers; Baf3/EpoR/GCSFR fos/lux cells, 4 h. On the procedure: One assay is based upon a murine pre-B-cell line expressing human EPO-R and further transfected with a fos promoter-driven luciferase reporter gene construct. Upon exposure to EPO or another EPO-R agonist, such cells respond by synthesizing luciferase. Luciferase causes the emission of light upon addition of its substrate luciferin. Thus, the level of EPO-R activation in such cells may be quantitated via measurement of luciferase activity. The activity of a test peptide is measured by adding serial dilutions of the test peptide to the cells, which are then incubated for 4 hours. After incubation, luciferin substrate is added to the cells, and light emission is measured. The concentration of test peptide that results in a half-maximal emission of light is recorded as the EC50.
This assay is based upon a on a murine pre-B-cell line derived reporter cell, Baf3/EpoR/GCSFR fos/lux. […] Thus, the level of EPO-R activation in such cells may be quantitated via measurement of luciferase activity.
The Baf3/EpoR/GCSFR fos/lux cells are cultured in DMEM/F12 medium (Gibco) supplemented with 10% fetal bovine serum (FBS; Hyclone), 10% WEHI-3 supernatant (the supernatant from a culture of WEHI-3 cells, ATCC # TIB-68), and penicillin/streptomycin. […] Following a 5-minute incubation, light emission is measured on a Packard Topcount Luminometer (Packard Instrument Co., Downers Grove, Ill.). […]
In general terms: A reporter such as luciferase makes a cellular process visible.

In test [2] the test system is human, bone marrow derived CD34+ cells. It is filed as cell-based. The text has this: EPO-R signaling stimulates the differentiation of bone marrow stem cells into proliferating red blood cell precursors. This assay measures the ability of test peptides to stimulate the proliferation and differentiation of red blood cell precursors from primary human bone marrow pluripotent stem cells.
For this assay, serial dilutions of test peptide are made in IMDM medium (Gibco) supplemented with 10% FBS (Hyclone). […] The methylcellulose and peptide mixture is then vortexed thoroughly. Aliquots (100,000 cells/mL) of human, bone marrow derived CD34+ cells (Poietics/Cambrex) are thawed. The thawed cells are gently added to 0.1 mL of 1 mg/ml DNAse (Stem Cells) in a 50 mL tube. Next, 40-50 mL IMDM medium is added gently to cells: the medium is added drop by drop along the side of the 50 mL tube for the first 10 mL, and then the remaining volume of medium is slowly dispensed along the side of the tube. The cells are then spun at 900 rpm for 20 min, and the media removed carefully by gentle aspiration. The cells are resuspended in 1 ml of IMDM medium and the cell density per mL is counted on hemacytometer slide (10 μL aliquot of cell suspension on slide, and cell density is the average count×10,000 cells/mil). The cells are then diluted in IMDM medium to a cell density of 15,000 cells/mL. A 100 μL of diluted cells is then added to each 1.5 mL methyl cellulose plus peptide sample (final cell concentration in assay media is 1000 cells/mL), and the mixture is vortexed. Allow the bubbles in the mixture to disappear, and then aspirate 1 mL using blunt-end needle. Add 0.25 mL aspirated mixture from each sample into each of 4 wells of a 24-well plate (Falcon brand). Incubate the plated mixtures at 37° C. under 5% CO2 in a humid incubator for 14 days. Score for the presence of erythroid colonies using a phase microscope (5×-10× objective, final magnification of 100×).

The target of test [3] is T1, human EPO-R (Homo sapiens, UniProt P19235).
T1 construct: expressed in transfected cells; host or cells: murine pre-B-cell line Baf3 (BaF3/Gal4/Elk/EPOR)
T1 sequence (P19235 25-508): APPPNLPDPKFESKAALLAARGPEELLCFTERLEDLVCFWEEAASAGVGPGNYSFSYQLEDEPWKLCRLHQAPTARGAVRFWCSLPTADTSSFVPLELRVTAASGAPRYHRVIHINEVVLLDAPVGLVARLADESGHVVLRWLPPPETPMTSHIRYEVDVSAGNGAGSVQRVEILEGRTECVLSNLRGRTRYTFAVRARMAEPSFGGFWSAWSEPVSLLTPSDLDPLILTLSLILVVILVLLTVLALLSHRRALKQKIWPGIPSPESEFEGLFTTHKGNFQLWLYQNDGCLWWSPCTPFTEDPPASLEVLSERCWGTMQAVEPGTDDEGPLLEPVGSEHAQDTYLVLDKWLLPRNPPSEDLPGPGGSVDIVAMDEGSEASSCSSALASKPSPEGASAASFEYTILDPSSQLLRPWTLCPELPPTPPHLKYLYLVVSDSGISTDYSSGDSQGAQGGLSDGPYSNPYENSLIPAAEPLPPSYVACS
In words: Proliferation assay (BaF3/Gal4/Elk/EPOR cells, MTT). The note with it: 48 h. Format: cell-based. On the procedure: This assay is based upon a murine pre-B-cell line, Baf3, transfected to express human EPO-R. Proliferation of the resulting cell line, BaF3/Gal4/Elk/EPOR, is dependent on EPO-R activation. The degree of cell proliferation is quantitated using MTT, where the signal in the MTT assay is proportional to the number of viable cells.
The BaF3/Ga14/Elk/EPOR cells are cultured in spinner flasks in DMEM/F12 medium (Gibco) supplemented with 10% FBS (Hyclone) and 2% WEHI-3 supernatant (ATCC # TIB-68). Cultured cells are starved overnight, in a spinner flask at a cell density of 1×10^6 cells/ml, in DMEM/F12 medium supplemented with 10% FBS and 0.1% WEHI-3 supernatant. The starved cells are then washed twice with Dulbecco's PBS (Gibco), and resuspended to a density of 1×10^6 cells/ml in DMEM/F12 supplemented with 10% FBS (no WEHI-3 supernatant). 50 μL , aliquots (˜50,000 cells) of the cell suspension are then plated, in triplicate, in 96 well assay plates. […] The plated cells are then incubated for 48 h at 37° C. Next, 10 μL of MTT (Roche Diagnostics) is added to each culture dish well, and then allowed to incubate for 4 h. The reaction is then stopped by adding 10% SDS+0.01N HCl. The plates are then incubated overnight at 37° C. Absorbance of each well at a wavelength of 595 nm is then measured by spectrophotometry. Plots of the absorbance readings versus test peptide concentration are constructed and the EC50 calculated using Graph Pad software. The concentration of test peptide that results in a half-maximal absorbance is recorded as the EC50 [See Table 3: Proliferation EC50].

The target of test [4] is T2, recombinant EPO-R (Homo sapiens, UniProt P19235).
T2 construct: made in house; host or cells: Chinese Hamster Ovary cells
T2 sequence (P19235 25-250 limits assumed): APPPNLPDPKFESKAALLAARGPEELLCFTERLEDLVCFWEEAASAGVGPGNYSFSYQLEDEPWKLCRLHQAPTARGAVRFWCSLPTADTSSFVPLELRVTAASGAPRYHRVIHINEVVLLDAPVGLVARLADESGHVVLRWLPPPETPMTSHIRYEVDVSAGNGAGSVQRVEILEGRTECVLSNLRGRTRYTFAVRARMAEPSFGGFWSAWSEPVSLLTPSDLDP
In words: Competitive binding assay (AQ, bead proximity, tracer AF33068). Conditions: tracer AF33068 30 nM, 18 hours. The text has this: Competitive binding calculations are made using an assay in which a light signal is generated as a function of the proximity of two beads: a streptavidin donor bead bearing a biotinylated EPO-R-binding peptide tracer and an acceptor bead to which is bound EPO-R. Light is generated by non-radiative energy transfer, during which a singlet oxygen is released from a first bead upon illumination, and contact with the released singlet oxygen causes the second bead to emit light. These bead sets are commercially available (Packard). Bead proximity is generated by the binding of the EPO-R-binding peptide tracer to the EPO-R. A test peptide that competes with the EPO-R-binding peptide tracer for binding to EPO-R will prevent this binding, causing a decrease in light emission.
In more detail the method is as follows: Add 4 μL of serial dilutions of the test EPO-R agonist peptide, or positive or negative controls, to wells of a 384 well plate. Thereafter, add 2 μL/well of receptor/bead cocktail. […]
Centrifuge 1 min to mix. […] After 18 hours read light emission using an AlphaQuest reader (Packard). […]

In test [1], “GGLYACHMGPMT(1-nal)VCQPLRG (GGLYACHMGPMT[1Nal]VCQPLRG; cysteine pairing not given here) [AF31748]” gave an EC50 of 40 nM.
The same measure, in the same setting: the value for GGLYACHMGPMTVCQPLRG [AF31552] was 100 nM.
“I: Ac-GGLYACHMGPITWVCQPLRGK[Ahx][Ahx] / II: Ac-GGLYACHMGPITWVCQPLRG (disulfide I:6-I:15, II:6-II:15; amide I:21-II:C; N-terminus assumed) [AF34753]”: the 90% effect level in test [2] (EC90) was put at 1.2 nM.
In test [2], “I: Ac-GGLYACHMGPIT[1Nal]VCQPLR[Sar][ξK]-{NH(CH2CH2O)2CH2CH2NH2} / II: Ac-GGLYACHMGPIT[1Nal]VCQPLR[Sar] (disulfide I:6-I:15, II:6-II:15; amide I:21-II:C) [AF35525]” gave an EC90 of 3 nM. This substance had an EC50 in test [3] of 0.057 nM.
On to “I: Ac-GGLYACH[hSer](Me)GPIT[1Nal]VCQPLRGK[Ahx][Ahx] / II: Ac-GGLYACH[hSer](Me)GPIT[1Nal]VCQPLRG (disulfide I:6-I:15, II:6-II:15; amide I:21-II:C; N-terminus assumed) [AF35179]”, for which the EC90 in test [2] is 3.7 nM.
Regarding “I: Ac-GGLYACH[hSer](Me)GPIT[1Nal]VCQPLR[Sar][ξK]-{NH(CH2CH2O)2CH2CH2NH2} / II: Ac-GGLYACH[hSer](Me)GPIT[1Nal]VCQPLR[Sar] (disulfide I:6-I:15, II:6-II:15; amide I:21-II:C) [AF35149]”, in test [2], the EC90 was 2 nM. The same substance displayed an EC50 in test [3] of 0.057 nM.
With “I: GGLYACHMGPITWVCQPLRGK-NH2 / II: GGLYACHMGPITWVCQPLRG (disulfide I:6-I:15, II:6-II:15; amide I:21-II:C) [AF32579]”, the EC90 in test [2] came out at 3 nM. Moreover, the half-maximal effective concentration (EC50) in test [3] is 0.142 nM. In test [4], the IC50 was found to be 1.7 nM.
As for “I: GGLYACHMGPIT[1Nal]VCQPLR[Sar]K-NH2 / II: GGLYACHMGPIT[1Nal]VCQPLR[Sar] (disulfide I:6-I:15, II:6-II:15; amide I:21-II:C) [AF34994]”, the EC90 in test [2] amounted to 3.7 nM. In addition, the response in test [3] was half-maximal at 0.17 nM (EC50).
On the same counts, the results for “I: GGLYACH[hSer](Me)GPITWVCQPLR[Sar]K-NH2 / II: GGLYACH[hSer](Me)GPITWVCQPLR[Sar] (disulfide I:6-I:15, II:6-II:15; amide I:21-II:C) [AF35090]” are 3.7 nM and 0.19 nM.
On to “I: GGLYACH[hSer](Me)GPIT[1Nal]VCQPLRGK-NH2 / II: GGLYACH[hSer](Me)GPIT[1Nal]VCQPLRG (disulfide I:6-I:15, II:6-II:15; amide I:21-II:C) [AF32881]”, for which, in test [2], the 90% effect level (EC90) was put at 11 nM. This counts as double-digit nanomolar.

As a reminder, the EC50 is the concentration giving half of the maximal effect. By EC90 is commonly meant the point of the concentration-response curve where the effect stands at 90%. High values mean a need for much substance, low ones an effect from little substance. For orientation: IC50 means the concentration that gives 50% inhibition.
